Marks after values point to notes of the source that are not given here.
Assays:
Format in all cases: in vivo, C57BL/6N/CriBgi mice
[1] = test system: G6PD mRNA; test: Expression of mRNA for G6PD in adipose tissue (real-time PCR); settings: normal diet = 1.00, GAPDH internal marker
Excerpt: (§1) Test diets were as follows: “normal diet group”=AIN-76 semisynthetic diet of Teklad (Madison, Wl, USA); “high fat diet group”=normal diet+10% of corn oil and 10% of lard; “test group I”=high fat diet+fucoxanthin extract of Example 1 (fucoxanthin content=0.05%); “test group II”=high fat diet+fucoxanthin extract of Example 1 (fucoxanthin content=0.2%); “test group III”=high fat diet+fucoxanthin extract of Example 2 (fucoxanthin content=0.05%); “test group IV”=high fat diet+fucoxanthin extract of Example 2 (fucoxanthin content=0.2%). The 6 diets (normal diet, high fat diet, and test I, II, III and IV) were given to the animals for 6 weeks. Diet intake was recorded every day, and body weight was measured once a week.
(§2) 5 mL of Trizol was added to 0.5 g of white adipose tissue. After pulverizing in liquid nitrogen using a mortar, the tissue was added to 1 mL of chloroform. […] The isolated RNA was diluted and absorbance was measured at 260 nm using a UV spectrometer. […]
(§3) Thus prepared cDNA was […] 10-fold, and primers for analyzing the expression of the respective genes (CPT, β-oxidation, FAS, ME and G6PD) were obtained from Genotech (Daejeon, Korea). […] Fluorescence signals were monitored for each cycle and threshold cycle (Cr) was analyzed for quantitative analysis of mRNA for the test groups (Applied Biosystems, SDS7000) (Livak, 2001). […]

[2] = test system: CPT mRNA; test: Expression of mRNA for CPT in adipose tissue (real-time PCR); settings: normal diet = 1.00, GAPDH internal marker
Excerpt: as §1, §2, §3

[3] = test system: phosphatidate phosphohydrolase (PAP); test: PAP activity in liver tissue; settings: high fat diet, 6 weeks
Excerpt: as §1

[4] = fucoxanthin content 0.05% (Test I/III)
[5] = fucoxanthin content 0.2% (Test II/IV)

## CC(=O)O[C@H]1CC(C)(C)C(=C=C/C(C)=C/C=C/C(C)=C/C=C/C=C(C)/C=C/C=C(\C)C(=O)C[C@@]23O[C@]2(C)C[C@@H](O)CC3(C)C)[C@](C)(O)C1 [highly pure fucoxanthin, Fucoxanthin]
[1]; [4]
  Expression of mRNA, G6PD: 1.10 ± 0.15^abc
[1]; [5]
  Expression of mRNA, G6PD: 0.67 ± 0.04^a
[2]; [4]
  Expression of mRNA, CPT: 1.65 ± 0.15^c
[2]; [5]
  Expression of mRNA, CPT: 1.51 ± 0.06^bc
[3]; [4]
  PAP activity: 21.62 ± 1.54^a mmol/min/mg protein
[3]; [5]
  PAP activity: 26.14 ± 1.03^ab mmol/min/mg protein

Source: patent US20100210722A1, “COMPOSITION FOR PREVENTING OR TREATING LIPID METABOLIC DISORDERS COMPRISING FUCOXANTHIN OR MARINE PLANT EXTRACT CONTAINING SAME” (AMICOGEN, INC., priority 2007, published 2010)
